Drawing on the supplement of paper PMC10307832, this text covers relative viability for seven cell lines.

Common to all, as to experiment: relative viability (nuclei count vs DMSO), 5 days (fraction); higher = more cells survive
Compound in assay [1]: C1/C(=C\C2=CC=CS2)/C(=O)/C(=C/C3=CC=CS3)/C1 + CC(=O)Nc1cccc(-n2c(=O)n(C3CC3)c(=O)c3c(Nc4ccc(I)cc4F)n(C)c(=O)c(C)c32)c1 [Trametinib] (partner 0.02 µM)
The essentials: (§1)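 Lung cancer cell lines, seeded in 1536-well plates, were treated the following day by pin tool with a single drug or with five library-drug doses (not always all listed) in √10 steps on top of a fixed anchor-drug dose. Cells were fixed and nuclei stained in one step after 5 days, and nuclei were counted. Relative viability is the nuclei count for treated wells divided by that for vehicle wells, reported as medians of duplicate plates.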

Compound in assay [2]: C1=CC(=CC=C1C2=CC(=C(S2)NC(=O)N)C(=O)N)F [TPCA-1] + CC(=O)Nc1cccc(-n2c(=O)n(C3CC3)c(=O)c3c(Nc4ccc(I)cc4F)n(C)c(=O)c(C)c32)c1 [Trametinib] (partner 0.02 µM)
The essentials:
as §1

Compound in assay [3]: C[C@]12O[C@H](C[C@]1(O)CO)n1c3ccccc3c3c4c(c5c6ccccc6n2c5c31)CNC4=O [Lestaurtinib] + NC(=O)Nc1cc(-c2cccc(F)c2)sc1C(=O)N[C@H]1CCCNC1 [AZD7762] (partner 0.2 µM)
The essentials: as §1

Compound in assay [4]: C[C@]12O[C@H](C[C@]1(O)CO)n1c3ccccc3c3c4c(c5c6ccccc6n2c5c31)CNC4=O [Lestaurtinib] + O=C(c1cc(Cc2n[nH]c(=O)c3ccccc23)ccc1F)N1CCN(C(=O)C2CC2)CC1 [Olaparib] (partner 8 µM)
The essentials:
as §1

Consider NCI-H2347, for which the relative viability in assay [1] (first compound 0.2 µM) came out at 0.273; in assay [1] (first compound 0.6325 µM), 0.271; in assay [1] (first compound 2 µM) it was 0.27; in assay [1] (first compound 6.325 µM) it was 0.26; in assay [1] (first compound 20 µM) it was 0.28; in assay [2] (first compound 0.04 µM) it was 0.26. For the same cell line, the relative viability in assay [2] (first compound 0.1265 µM) is 0.316; in assay [2] (first compound 0.4 µM), 0.276; in assay [2] (first compound 1.265 µM), 0.266; in assay [2] (first compound 4 µM), 0.252; in assay [3] (first compound 0.005 µM), 0.7; in assay [3] (first compound 0.01581 µM), 0.83. Moreover, the relative viability in assay [3] (first compound 0.05 µM) was determined as 0.648; in assay [3] (first compound 0.1581 µM) it was 0.568; in assay [3] (first compound 0.5 µM), 0.466; in assay [4] (first compound 0.005 µM), 0.567; in assay [4] (first compound 0.01581 µM) it was 0.639; in assay [4] (first compound 0.05 µM), 0.581. The relative viability came to 0.529 in assay [4] (first compound 0.1581 µM) and 0.607 in assay [4] (first compound 0.5 µM).

NCI-H2405: the relative viability in assay [1] (first compound 0.2 µM) turned out to be 0.688; in assay [1] (first compound 0.6325 µM), 0.578; in assay [1] (first compound 2 µM), 0.603; in assay [1] (first compound 6.325 µM), 0.585; in assay [1] (first compound 20 µM), 0.699; in assay [2] (first compound 0.04 µM), 0.662. Besides, the relative viability in assay [2] (first compound 0.1265 µM) is 0.606; in assay [2] (first compound 0.4 µM) it was 0.722; in assay [2] (first compound 1.265 µM), 0.469; in assay [2] (first compound 4 µM) it was 0.638; in assay [3] (first compound 0.005 µM), 0.746; in assay [3] (first compound 0.01581 µM), 0.885. Moreover, the relative viability in assay [3] (first compound 0.05 µM) is 0.492; in assay [3] (first compound 0.1581 µM), 0.662; in assay [3] (first compound 0.5 µM) it was 0.218; in assay [4] (first compound 0.005 µM), 0.98; in assay [4] (first compound 0.01581 µM) it was 1.01; in assay [4] (first compound 0.05 µM), 0.913. The relative viability in assay [4] (first compound 0.1581 µM) amounted to 0.846; in assay [4] (first compound 0.5 µM), 0.486.

Consider NCI-H3122, for which the relative viability stood at 0.25 in assay [1] (first compound 0.2 µM); 0.222 in assay [1] (first compound 0.6325 µM); 0.226 in assay [1] (first compound 2 µM); 0.233 in assay [1] (first compound 6.325 µM); 0.251 in assay [1] (first compound 20 µM); 0.228 in assay [2] (first compound 0.04 µM). Besides, the relative viability in assay [2] (first compound 0.1265 µM) came out at 0.177; in assay [2] (first compound 0.4 µM), 0.228; in assay [2] (first compound 1.265 µM) it was 0.243; in assay [2] (first compound 4 µM), 0.215; in assay [3] (first compound 0.005 µM), 1.05; in assay [3] (first compound 0.01581 µM), 1.08. Besides, the relative viability was 1.1 in assay [3] (first compound 0.05 µM); 1.32 in assay [3] (first compound 0.1581 µM); 0.537 in assay [3] (first compound 0.5 µM); 0.862 in assay [4] (first compound 0.005 µM); 0.637 in assay [4] (first compound 0.01581 µM); 0.552 in assay [4] (first compound 0.05 µM). Also, the results for the relative viability in assay [4] (first compound 0.1581 µM) and in assay [4] (first compound 0.5 µM) were 0.598 and 0.5, respectively.

On to PC-3 [JPC-3], for which the relative viability was 0.731 in assay [1] (first compound 0.6325 µM); 0.753 in assay [1] (first compound 2 µM); 0.613 in assay [1] (first compound 6.325 µM); 0.759 in assay [1] (first compound 20 µM); 0.755 in assay [2] (first compound 0.04 µM); 0.692 in assay [2] (first compound 0.1265 µM). Moreover, the relative viability in assay [2] (first compound 0.4 µM) stood at 0.73; in assay [2] (first compound 1.265 µM), 0.757; in assay [2] (first compound 4 µM) it was 0.642; in assay [3] (first compound 0.005 µM) it was 0.759; in assay [3] (first compound 0.01581 µM) it was 1.04; in assay [3] (first compound 0.05 µM), 0.688. For the same cell line, the relative viability in assay [3] (first compound 0.1581 µM) is 0.586; in assay [3] (first compound 0.5 µM), 0.485; in assay [4] (first compound 0.005 µM) it was 1.2; in assay [4] (first compound 0.01581 µM) it was 1.3; in assay [4] (first compound 0.05 µM), 0.818; in assay [4] (first compound 0.1581 µM), 1.03. Besides, in assay [4] (first compound 0.5 µM), the relative viability came out at 0.698.

As to PC-14, the relative viability came to 0.792 in assay [1] (first compound 0.2 µM); 0.829 in assay [1] (first compound 0.6325 µM); 0.761 in assay [1] (first compound 2 µM); 0.696 in assay [1] (first compound 6.325 µM); 0.663 in assay [1] (first compound 20 µM); 0.885 in assay [2] (first compound 0.04 µM). In addition, the relative viability in assay [2] (first compound 0.1265 µM) is 0.687; in assay [2] (first compound 0.4 µM), 0.79; in assay [2] (first compound 1.265 µM) it was 0.705; in assay [2] (first compound 4 µM), 0.57; in assay [3] (first compound 0.005 µM) it was 0.336; in assay [3] (first compound 0.01581 µM), 0.57. In addition, the relative viability in assay [3] (first compound 0.05 µM) is 0.362; in assay [3] (first compound 0.1581 µM) it was 0.248; in assay [3] (first compound 0.5 µM), 0.146; in assay [4] (first compound 0.005 µM), 0.252; in assay [4] (first compound 0.01581 µM) it was 0.243; in assay [4] (first compound 0.05 µM), 0.242. Besides, the relative viability in assay [4] (first compound 0.1581 µM) was 0.238; in assay [4] (first compound 0.5 µM) it was 0.179.

RERF-LC-KJ: the relative viability was determined as 0.924 in assay [1] (first compound 0.2 µM); 0.879 in assay [1] (first compound 0.6325 µM); 0.846 in assay [1] (first compound 2 µM); 0.741 in assay [1] (first compound 6.325 µM); 0.739 in assay [1] (first compound 20 µM); 0.852 in assay [2] (first compound 0.04 µM). The relative viability amounted to 0.786 in assay [2] (first compound 0.1265 µM); 0.89 in assay [2] (first compound 0.4 µM); 0.756 in assay [2] (first compound 1.265 µM); 0.732 in assay [2] (first compound 4 µM); 1.1 in assay [3] (first compound 0.005 µM); 1.16 in assay [3] (first compound 0.01581 µM). Besides, the relative viability is 0.729 in assay [3] (first compound 0.05 µM); 0.984 in assay [3] (first compound 0.1581 µM); 0.61 in assay [3] (first compound 0.5 µM); 1.13 in assay [4] (first compound 0.005 µM); 1.07 in assay [4] (first compound 0.01581 µM); 0.961 in assay [4] (first compound 0.05 µM). Besides, the figures for the relative viability in assay [4] (first compound 0.1581 µM) and in assay [4] (first compound 0.5 µM) were 0.952 and 0.399, respectively.

As for SW 900, the relative viability in assay [1] (first compound 0.2 µM) was found to be 0.739; in assay [1] (first compound 0.6325 µM), 0.752; in assay [1] (first compound 2 µM), 0.815; in assay [1] (first compound 6.325 µM), 0.308; in assay [1] (first compound 20 µM), 0.734; in assay [2] (first compound 0.4 µM), 0.775. The relative viability in assay [2] (first compound 1.265 µM) was found to be 0.909; in assay [2] (first compound 4 µM), 0.764; in assay [3] (first compound 0.005 µM) it was 0.632; in assay [3] (first compound 0.01581 µM), 0.561; in assay [3] (first compound 0.05 µM), 0.555; in assay [3] (first compound 0.1581 µM), 0.702. Also, the relative viability in assay [3] (first compound 0.5 µM) amounted to 0.614; in assay [4] (first compound 0.005 µM), 0.92; in assay [4] (first compound 0.01581 µM) it was 1.12; in assay [4] (first compound 0.05 µM), 0.958; in assay [4] (first compound 0.1581 µM) it was 1.34; in assay [4] (first compound 0.5 µM), 1.07.
